Data as given in patent US12649726B2, “Substituted tetrahydroisoquinoline derivative as a D1 positive allosteric modulator” (UCB Biopharma SRL, priority 2020, dated 2026).
Values joined by “and” are separate entries in the source; they are usually repeats but may differ in a detail not shown here. Equal values may be shown once.

Columns and labels:
Type in all cases: cell-based
[1] = target: T1, human GABAA receptor α1,β2 and γ2 subunits (Homo sapiens, UniProt P14867+P18507+P47870); test: Automated patch clamp GABAA receptor inhibition assay (IonFlux HT); settings: 10 μM compound, 15 μM GABA, CHO-K1 cells, holding potential −60 mV; read-out: percentage of inhibition of the GABAA receptor
T1 construct: expressed in transfected cells; host or cells: CHO-K1 cells
Experimental: CHO-K1 cells stably expressing human GABAA receptor α1,β2 and γ2 subunits were used. The cells were harvested using trypsin and maintained in serum-free medium at room temperature. The cells were washed and re-suspended in extracellular solution before testing.
Experiments on human GABAA (α1β2γ2) channels were conducted using an automated patch clamp assay (IonFlux™ HT). Compounds were tested at 3 concentrations (0.1, 1, and 10 μM) in 3 to 4 cells. The external solution for recording GABAA currents was composed of sodium chloride 137 mM, potassium chloride 4 mM, calcium chloride 1.8 mM, magnesium chloride 1 mM, HEPES 10 mM, and glucose 10 mM. Both external and internal solutions were titrated with NaOH or KOH to obtain a pH of 7.35 or 7.3, respectively. The internal pipette solution contained potassium fluoride 70 mM, potassium chloride 60 mM, sodium chloride 70 mM, HEPES 5 mM, EGTA 5 mM, and Magnesium ATP 4 mM. The final concentration of vehicle used to dilute compounds was 0.33% DMSO in each well. Bicuculline (0.032 to 100 μM) was used as positive control inhibitor. GABA (15 μM) was used as agonist. […]
The compound addition sequence was the following: one addition of the EC80 concentration of GABA was added to establish baseline response. […] Peak inward currents in response to the GABA additions in the presence of a single concentration of compound were measured. […]

dopamine D1 receptor [2] = target: T2, dopamine D1 receptor (Homo sapiens, UniProt P21728); test: cAMP HTRF activation assay (absence of dopamine); settings: 10 μM compound, LMtk (Ltk−) cells expressing D1, read-out: activation (compared to dopamine maximal response)
T2 construct: host or cells: LMtk (Ltk−) mouse fibroblast cells
Source text: (§1) Assays have been designed to measure the effects of compounds in accordance with the present invention in the absence of dopamine (“activation assay”) and in the presence of dopamine (“potentiation assay”).
The activation assay measures the stimulation of the production of cyclic adenosinemonophosphate (cAMP) in the Homogeneous Time Resolved Fluorescent (HTRF) assay, with the maximum increase in cAMP by increasing concentrations of the endogenous agonist, dopamine, defined as 100% activation.
(§2) Cells were cultured at 37° C. in a humidified atmosphere of 5% CO2. […]
The measurement of changes in intracellular cyclic adenosinemonophopshpate (cAMP) was determined using the HTRF cAMP dynamic assay kit from CisBio (Codolet, France). Using homogenous time-resolved fluorescence technology, the assay is based on competition between native cAMP produced by cells and cAMP labelled with the dye d2. The tracer binding is determined by an anti-cAMP antibody labeled with cryptate. The effects of the compound alone (agonism) was determined by performing the assay in the absence of dopamine, whilst the effect of the compound as a positive allosteric modulator (PAM) was determined in the presence of an EC20 concentration of dopamine. […]

dopamine D1 receptor [3] = target: T2, dopamine D1 receptor; test: cAMP HTRF potentiation assay (presence of EC20 dopamine)
Source text: as §1
The potentiation assay measures the ability of compounds to increase the levels of cAMP produced by a low-threshold concentration of dopamine. The concentration of dopamine used ([EC20]) is designed to produce 20% stimulation compared to the maximal response (100%) seen with increasing the concentration of dopamine. To measure this potentiation increasing concentrations of the compound with the [EC20] of dopamine are incubated and the potentiation is measured as increases in cAMP production and concentration of compound which produces 50% of the potentiation of the cAMP levels is measured.
as §2
The measurement of changes in intracellular cyclic adenosinemonophopshpate (cAMP) was determined using the HTRF cAMP dynamic assay kit from CisBio (Codolet, France). Using homogenous time-resolved fluorescence technology, the assay is based on competition between native cAMP produced by cells and cAMP labelled with the dye d2. The tracer binding is determined by an anti-cAMP antibody labeled with cryptate. […]

T2 sequence (P21728 whole entry): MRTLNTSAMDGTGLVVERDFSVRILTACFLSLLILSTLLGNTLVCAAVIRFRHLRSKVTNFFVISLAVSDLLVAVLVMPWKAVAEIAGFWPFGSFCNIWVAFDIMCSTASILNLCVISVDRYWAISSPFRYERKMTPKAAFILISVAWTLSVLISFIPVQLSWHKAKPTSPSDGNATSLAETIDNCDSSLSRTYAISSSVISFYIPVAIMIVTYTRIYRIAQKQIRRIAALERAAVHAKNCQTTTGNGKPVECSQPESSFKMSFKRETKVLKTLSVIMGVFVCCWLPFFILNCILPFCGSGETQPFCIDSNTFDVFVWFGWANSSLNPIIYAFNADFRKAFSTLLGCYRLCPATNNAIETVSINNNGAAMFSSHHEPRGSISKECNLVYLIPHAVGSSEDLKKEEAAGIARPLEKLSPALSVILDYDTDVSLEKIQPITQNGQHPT
T1 sequence (P14867 28-456): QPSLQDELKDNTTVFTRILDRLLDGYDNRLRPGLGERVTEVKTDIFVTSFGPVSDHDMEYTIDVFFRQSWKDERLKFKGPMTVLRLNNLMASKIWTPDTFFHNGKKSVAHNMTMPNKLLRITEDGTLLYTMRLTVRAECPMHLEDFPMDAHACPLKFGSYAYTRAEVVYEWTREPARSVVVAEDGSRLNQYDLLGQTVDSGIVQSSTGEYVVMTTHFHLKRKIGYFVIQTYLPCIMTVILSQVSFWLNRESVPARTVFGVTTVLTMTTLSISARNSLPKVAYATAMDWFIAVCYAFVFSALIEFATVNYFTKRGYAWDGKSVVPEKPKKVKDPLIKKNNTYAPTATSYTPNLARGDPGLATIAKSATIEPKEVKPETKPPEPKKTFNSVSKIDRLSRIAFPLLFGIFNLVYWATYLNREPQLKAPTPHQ
T1 sequence (P47870 25-512 limits assumed): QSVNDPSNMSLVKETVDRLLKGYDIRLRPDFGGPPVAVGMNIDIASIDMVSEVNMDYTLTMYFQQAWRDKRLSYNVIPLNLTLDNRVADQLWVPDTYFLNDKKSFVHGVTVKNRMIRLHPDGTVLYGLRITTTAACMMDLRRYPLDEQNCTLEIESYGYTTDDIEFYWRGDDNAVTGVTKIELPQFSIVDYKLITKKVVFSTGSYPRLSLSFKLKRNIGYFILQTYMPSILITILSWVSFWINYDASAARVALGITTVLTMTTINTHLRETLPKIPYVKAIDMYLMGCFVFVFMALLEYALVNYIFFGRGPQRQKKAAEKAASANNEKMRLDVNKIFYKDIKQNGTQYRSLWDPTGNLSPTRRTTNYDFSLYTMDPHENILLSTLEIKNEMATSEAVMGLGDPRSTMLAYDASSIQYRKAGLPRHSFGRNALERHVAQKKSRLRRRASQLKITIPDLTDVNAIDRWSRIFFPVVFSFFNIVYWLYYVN
T1 sequence (P18507 40-475): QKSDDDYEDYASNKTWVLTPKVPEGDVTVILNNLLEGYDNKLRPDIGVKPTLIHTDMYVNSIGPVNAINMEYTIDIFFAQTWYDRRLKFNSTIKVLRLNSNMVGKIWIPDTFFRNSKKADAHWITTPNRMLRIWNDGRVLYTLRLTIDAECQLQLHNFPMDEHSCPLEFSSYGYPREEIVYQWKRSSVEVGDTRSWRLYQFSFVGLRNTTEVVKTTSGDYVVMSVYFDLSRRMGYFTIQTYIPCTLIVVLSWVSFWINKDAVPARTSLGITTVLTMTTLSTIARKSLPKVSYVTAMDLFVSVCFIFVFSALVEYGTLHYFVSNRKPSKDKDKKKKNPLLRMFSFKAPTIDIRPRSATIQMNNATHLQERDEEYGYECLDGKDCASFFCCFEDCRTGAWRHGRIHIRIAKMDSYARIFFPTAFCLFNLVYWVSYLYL

- inhibition at 10 µM [1]: < 0.1%
- Emax at 10 µM (dopamine D1 receptor [2]): < 20%
- Erel (relative efficacy, maximal % potentiation vs dopamine maximal response) (dopamine D1 receptor [3]; in presence of [EC20] dopamine (1.1 nM), dopamine maximum = 100%): about 62%
- EC50 (dopamine D1 receptor [3]; potentiation of cAMP in presence of [EC20] dopamine (1.1 nM), LMtk (Ltk−) cells expressing D1): ~6.31 nM and < 31.6 nM
SMILES: C[C@H]1c2cccc(C(C)(C)O)c2C[C@H](CO)N1C(=O)Cc1c(Cl)ccc2[nH]nc(Cl)c12 [compound of formula (I), 2-(3,5-dichloro-1H-indazol-4-yl)-1-[(1S,3R)-3-(hydroxymethyl)-5-(1-hydroxy-1-methyl-ethyl)-1-methyl-3,4-dihydro-1H-isoquinolin-2-yl]ethanone]
